Measurements from US20070128217A1 (priority 2003, published 2007).

What was measured:
[1] = tested on: antibodies in sera from SARS patients (sera 1a, 1b, 2, 6, 37, 62, London, SARS-yellow, SARS-green); assay type: binding, human; design: Binding of serum 6 to linear peptides of protein X1 of SARS-CoV Urbani / Binding of serum 37 to linear peptides of protein X1 of SARS-CoV Urbani / Binding of serum 6 to looped/cyclic peptide (PEPSCAN-ELISA) / Binding of serum 37 to looped/cyclic peptide (PEPSCAN-ELISA) / Binding of serum 37 to looped/cyclic peptides of protein X1 of SARS-CoV Urbani / Binding of serum 6 to linear peptides of protein X2 / Binding of serum 37 to linear peptides of protein X2 / Binding of serum 37 to looped/cyclic peptides of protein X2 of SARS-CoV Urbani / Binding of serum 6 to linear peptides of protein M of SARS-CoV Urbani / Binding of serum 37 to linear peptides of protein M of SARS-CoV Urbani / Binding of serum 6 to looped/cyclic peptides of protein M of SARS-CoV Urbani / Binding of serum 37 to looped/cyclic peptides of protein M of SARS-CoV Urbani / Binding of serum 6 to linear peptides of protein X3 of SARS-CoV Urbani / Binding of serum 37 to linear peptides of protein X3 of SARS-CoV Urbani / Binding of serum 37 to looped/cyclic peptides of protein X3 of SARS-CoV Urbani / Binding of serum 6 to linear peptides of protein X4 of SARS-CoV Urbani / Binding of serum 37 to linear peptides of protein X4 of SARS-CoV Urbani / Binding of serum 37 to looped/cyclic peptides of protein X4 of SARS-CoV Urbani / Binding of serum 6 to linear peptides of protein X5 of SARS-CoV Urbani / Binding of serum 37 to linear peptides of protein X5 of SARS-CoV Urbani / Binding of serum 37 to looped/cyclic peptides of protein X5 of SARS-CoV Urbani / Binding of serum 6 to linear peptides of protein N of SARS-CoV Urbani / Binding of serum 37 to linear peptides of protein N of SARS-CoV Urbani / Binding of serum 6 to linear peptide (PEPSCAN-ELISA) / Binding of serum 1a to looped/cyclic peptides of protein N of SARS-CoV Urbani / Binding of serum 1b to looped/cyclic peptides of protein N of SARS-CoV Urbani / Binding of serum 2 to looped/cyclic peptides of protein N of SARS-CoV Urbani / Binding of serum 6 to looped/cyclic peptides of protein N of SARS-CoV Urbani / Binding of serum 37 to looped/cyclic peptides of protein N of SARS-CoV Urbani / Binding of serum 62 to looped/cyclic peptides of protein N of SARS-CoV Urbani / Binding of serum London to looped/cyclic peptides of protein N of SARS-CoV Urbani / Binding of serum SARS-green to looped/cyclic peptides of protein N of SARS-CoV Urbani: unit not given here
[2] = tested on: control sera (pooled serum of ten healthy LUMC hospital workers; commercial negative donor pooled serum from the Dutch bloodbank); assay type: binding, human; design: Binding of Control serum LUMC to linear peptides / Binding of Control serum Blood-bank to linear peptides / Binding of Control serum LUMC to looped peptides / Binding of Control Serum Blood-Bank to Looped peptides / Binding of Control serum LUMC to linear peptides of the protein M of SARS-CoV Urbani / Binding of Control serum Blood-bank to linear peptides of the protein M of SARS-CoV Urbani / Binding of Control serum LUMC to looped peptides of the protein M of SARS-CoV Urbani / Binding of Control Serum Blood-Bank to Looped peptides of the protein M of SARS-CoV Urbani: unit not given here
[3] = tested on: rabbit serum obtained by immunizing a rabbit with the SARS-CoV strain Frankfurt 1; assay type: binding; design: Binding of a rabbit serum to linear peptides / Binding of a rabbit serum to looped peptides / Rabbit serum linear peptides / Rabbit serum looped peptides / Binding of a rabbit serum to linear peptides of protein N of SARS-CoV Urbani (Rabbit serum linear peptides) / Binding of a rabbit serum to looped/cyclic peptides of protein N of SARS-CoV Urbani (Rabbit serum looped peptides): unit not given here

LVRYNTRGNTYSTAW
0.2: Binding of serum 1b to looped/cyclic peptides of protein X5 of SARS-CoV Urbani [1] | Binding of serum London to looped/cyclic peptides of protein X5 of SARS-CoV Urbani [1]
0.4: Binding of serum 1a to looped/cyclic peptides of protein X5 of SARS-CoV Urbani [1] | Binding of serum 1b to linear peptides of protein X5 of SARS-CoV Urbani [1] | Binding of serum 2 to looped/cyclic peptides of protein X5 of SARS-CoV Urbani [1] | Binding of serum 6 to linear peptides of protein X5 of SARS-CoV Urbani [1] | Binding of serum SARS-green to linear peptides of protein X5 of SARS-CoV Urbani [1]
0.6: Binding of serum 37 to linear peptides of protein X5 of SARS-CoV Urbani [1] | Binding of serum 62 to looped/cyclic peptides of protein X5 of SARS-CoV Urbani [1] | Binding of serum London to linear peptides of protein X5 of SARS-CoV Urbani [1]
0.8: Binding of Control serum Blood-bank to linear peptides [2]
0.7: Binding of serum 1a to linear peptides of protein X5 of SARS-CoV Urbani [1] | Binding of serum 62 to linear peptides of protein X5 of SARS-CoV Urbani [1] | Rabbit serum linear peptides [3]
0.3: Binding of serum 6 to looped/cyclic peptides of protein X5 of SARS-CoV Urbani [1] | Binding of serum SARS-green to looped/cyclic peptides of protein X5 of SARS-CoV Urbani [1] | Binding of serum SARS-yellow to linear peptides of protein X5 of SARS-CoV Urbani [1] | Binding of Control Serum Blood-Bank to Looped peptides [2] | Rabbit serum looped peptides [3]
0.5: Binding of serum 2 to linear peptides of protein X5 of SARS-CoV Urbani [1] | Binding of serum 37 to looped/cyclic peptides of protein X5 of SARS-CoV Urbani [1] | Binding of serum SARS-yellow to looped/cyclic peptides of protein X5 of SARS-CoV Urbani [1] | Binding of Control serum LUMC to linear peptides [2] | Binding of Control serum LUMC to looped peptides [2]

LVVILRIGTQVLKTM
0.6: Binding of serum 1a to looped/cyclic peptides of protein X2 of SARS-CoV Urbani [1] | Binding of serum 1b to looped/cyclic peptides of protein X2 of SARS-CoV Urbani [1] | Binding of serum 37 to linear peptides of protein X2 [1] | Binding of Control serum LUMC to looped peptides [2] | Binding of a rabbit serum to looped peptides [3]
0.8: Binding of Control Serum Blood-Bank to Looped peptides [2]
0.3: Binding of serum London to looped/cyclic peptides of protein X2 of SARS-CoV Urbani [1]
0.7: Binding of serum 1a to linear peptides of protein X2 [1] | Binding of serum 62 to linear peptides of protein X2 [1] | Binding of serum 62 to looped/cyclic peptides of protein X2 of SARS-CoV Urbani [1] | Binding of serum SARS-yellow to linear peptides of protein X2 [1] | Binding of Control serum Blood-bank to linear peptides [2] | Binding of Control serum LUMC to linear peptides [2]
0.4: Binding of serum 2 to looped/cyclic peptides of protein X2 of SARS-CoV Urbani [1] | Binding of serum 6 to linear peptides of protein X2 [1] | Binding of serum 6 to looped/cyclic peptides of protein X2 of SARS-CoV Urbani [1] | Binding of serum 37 to looped/cyclic peptides of protein X2 of SARS-CoV Urbani [1] | Binding of serum SARS-green to looped/cyclic peptides of protein X2 of SARS-CoV Urbani [1] | Binding of a rabbit serum to linear peptides [3]
0.5: Binding of serum 1b to linear peptides of protein X2 [1] | Binding of serum 2 to linear peptides of protein X2 [1] | Binding of serum London to linear peptides of protein X2 [1] | Binding of serum SARS-green to linear peptides of protein X2 [1] | Binding of serum SARS-yellow to looped/cyclic peptides of protein X2 of SARS-CoV Urbani [1]

LYALIYFLQCINACR
0.5: Binding of serum 1b to linear peptides of protein X1 of SARS-CoV Urbani [1] | Binding of serum 2 to linear peptides of protein X1 of SARS-CoV Urbani [1] | Binding of serum 6 to linear peptides of protein X1 of SARS-CoV Urbani [1] | Binding of serum 62 to looped/cyclic peptide (PEPSCAN-ELISA) [1]
0.3: Binding of serum 1b to looped/cyclic peptide (PEPSCAN-ELISA) [1] | Binding of serum London to linear peptides of protein X1 of SARS-CoV Urbani [1]
1.2: Binding of serum London to looped/cyclic peptide (PEPSCAN-ELISA) [1]
0.1: Binding of serum SARS-green to linear peptides of protein X1 of SARS-CoV Urbani [1]
0.4: Binding of serum 1a to looped/cyclic peptide (PEPSCAN-ELISA) [1] | Binding of serum SARS-yellow to linear peptides of protein X1 of SARS-CoV Urbani [1] | Binding of Control Serum Blood-Bank to Looped peptides [2]
0.6: Binding of serum 2 to looped/cyclic peptide (PEPSCAN-ELISA) [1] | Binding of serum 37 to linear peptides of protein X1 of SARS-CoV Urbani [1] | Binding of serum 37 to looped/cyclic peptide (PEPSCAN-ELISA) [1] | Binding of serum 62 to linear peptides of protein X1 of SARS-CoV Urbani [1] | Binding of Control serum LUMC to linear peptides [2] | Binding of Control serum LUMC to looped peptides [2] | Binding of a rabbit serum to looped peptides [3]
0.2: Binding of serum SARS-green to looped/cyclic peptide (PEPSCAN-ELISA) [1] | Binding of serum SARS-yellow to looped/cyclic peptide (PEPSCAN-ELISA) [1] | Binding of a rabbit serum to linear peptides [3]
0.7: Binding of serum 1a to linear peptides of protein X1 of SARS-CoV Urbani [1] | Binding of serum 6 to looped/cyclic peptide (PEPSCAN-ELISA) [1] | Binding of Control serum Blood-bank to linear peptides [2]

LYDANYFVCWHTHNY
0.6: Binding of serum 1a to looped/cyclic peptide (PEPSCAN-ELISA) [1] | Binding of serum 37 to looped/cyclic peptide (PEPSCAN-ELISA) [1] | Binding of serum 62 to looped/cyclic peptide (PEPSCAN-ELISA) [1]
0.5: Binding of serum 1b to looped/cyclic peptide (PEPSCAN-ELISA) [1] | Binding of serum 2 to linear peptides of protein X1 of SARS-CoV Urbani [1] | Binding of serum SARS-yellow to linear peptides of protein X1 of SARS-CoV Urbani [1] | Binding of Control serum LUMC to looped peptides [2] | Binding of a rabbit serum to looped peptides [3]
0.4: Binding of serum 2 to looped/cyclic peptide (PEPSCAN-ELISA) [1] | Binding of serum 6 to looped/cyclic peptide (PEPSCAN-ELISA) [1] | Binding of serum London to linear peptides of protein X1 of SARS-CoV Urbani [1] | Binding of serum SARS-green to linear peptides of protein X1 of SARS-CoV Urbani [1]
0.3: Binding of serum SARS-green to looped/cyclic peptide (PEPSCAN-ELISA) [1] | Binding of serum SARS-yellow to looped/cyclic peptide (PEPSCAN-ELISA) [1]
0.9: Binding of serum 1a to linear peptides of protein X1 of SARS-CoV Urbani [1]
0.7: Binding of serum 6 to linear peptides of protein X1 of SARS-CoV Urbani [1] | Binding of Control Serum Blood-Bank to Looped peptides [2] | Binding of Control serum LUMC to linear peptides [2]
0.1: Binding of a rabbit serum to linear peptides [3]
0.2: Binding of serum London to looped/cyclic peptide (PEPSCAN-ELISA) [1]
0.8: Binding of serum 1b to linear peptides of protein X1 of SARS-CoV Urbani [1] | Binding of serum 37 to linear peptides of protein X1 of SARS-CoV Urbani [1] | Binding of serum 62 to linear peptides of protein X1 of SARS-CoV Urbani [1] | Binding of Control serum Blood-bank to linear peptides [2]

LYIIKLVFLWLLWPV
0.2: Binding of serum London to looped/cyclic peptides of protein M of SARS-CoV Urbani [1] | Binding of serum SARS-yellow to linear peptides of protein M of SARS-CoV Urbani [1]
0.5: Binding of serum 1b to looped/cyclic peptides of protein M of SARS-CoV Urbani [1] | Binding of serum 2 to looped/cyclic peptides of protein M of SARS-CoV Urbani [1] | Binding of serum SARS-green to linear peptides of protein M of SARS-CoV Urbani [1]
0.7: Binding of serum 6 to looped/cyclic peptides of protein M of SARS-CoV Urbani [1] | Binding of Control Serum Blood-Bank to Looped peptides of the protein M of SARS-CoV Urbani [2] | Binding of Control serum Blood-bank to linear peptides of the protein M of SARS-CoV Urbani [2] | Binding of Control serum LUMC to linear peptides of the protein M of SARS-CoV Urbani [2]
0.1: Rabbit serum linear peptides [3]
0.6: Binding of serum 1a to looped/cyclic peptides of protein M of SARS-CoV Urbani [1] | Binding of serum 1b to linear peptides of protein M of SARS-CoV Urbani [1] | Binding of serum 2 to linear peptides of protein M of SARS-CoV Urbani [1] | Binding of serum 37 to looped/cyclic peptides of protein M of SARS-CoV Urbani [1] | Binding of serum 62 to looped/cyclic peptides of protein M of SARS-CoV Urbani [1] | Binding of Control serum LUMC to looped peptides of the protein M of SARS-CoV Urbani [2]
0.3: Binding of serum London to linear peptides of protein M of SARS-CoV Urbani [1] | Binding of serum SARS-green to looped/cyclic peptides of protein M of SARS-CoV Urbani [1] | Binding of serum SARS-yellow to looped/cyclic peptides of protein M of SARS-CoV Urbani [1] | Rabbit serum looped peptides [3]
0.8: Binding of serum 1a to linear peptides of protein M of SARS-CoV Urbani [1]
0.4: Binding of serum 6 to linear peptides of protein M of SARS-CoV Urbani [1] | Binding of serum 37 to linear peptides of protein M of SARS-CoV Urbani [1] | Binding of serum 62 to linear peptides of protein M of SARS-CoV Urbani [1]
